Patent EP4772509A1, “KINESIN KIF18A INHIBITOR, AND APPLICATION THEREOF” (Shanghai Apeiron Therapeutics Company Limited, priority 2023, dated 2025)
Where two headings read alike, the source gives them in different places.

Columns and labels:
[1] = system: HT29 cells; test: CyQuant cell proliferation activity test; assay type: cell-based; settings: HT29 at 2000 cells per well, 3 days, 0.2% DMSO, XLFIT
Procedure, shortened: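 Cells seeded at 2000/well in RPMI-1640 with 10% FBS, left overnight, then exposed 3 days at 37 °C, 5% CO2 to a 9-point 3-fold series from 3000 nM (0.2% DMSO). CyQuant signal read after 1 h; IC50 from curve fit.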

[2] = system: OVCAR3 cells; test: Cell proliferation activity test (CyQUANT Direct); assay type: cell-based; settings: 3 days, 0.2% DMSO, CyQUANT fluorescence
Procedure, shortened: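 OVCAR3 cells in RPMI-1640 with 10% FBS were seeded, then treated overnight later with compound at final 0–10 µM (0.2% DMSO) for 3 days at 37°C, 5% CO2. Proliferation was read as CyQUANT Direct fluorescence after 60 min at 37°C.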

[3] = molecular target: T1, Human KIF18A (amino acid sequence 1-417) (Homo sapiens, UniProt Q8NI77); test: Enzymatic activity test (ADP-Glo, microtubule-stimulated ATPase); assay type: biochemical; settings: 60 µg/mL microtubules, 25 µM ATP, 2.5 nM KIF18A protein, 120 min at ambient temperature, chemiluminescence; read-out: KIF18A IC50
T1 construct: purchased Viva Biotech (Shanghai) Ltd
T1 sequence (Q8NI77 1-417): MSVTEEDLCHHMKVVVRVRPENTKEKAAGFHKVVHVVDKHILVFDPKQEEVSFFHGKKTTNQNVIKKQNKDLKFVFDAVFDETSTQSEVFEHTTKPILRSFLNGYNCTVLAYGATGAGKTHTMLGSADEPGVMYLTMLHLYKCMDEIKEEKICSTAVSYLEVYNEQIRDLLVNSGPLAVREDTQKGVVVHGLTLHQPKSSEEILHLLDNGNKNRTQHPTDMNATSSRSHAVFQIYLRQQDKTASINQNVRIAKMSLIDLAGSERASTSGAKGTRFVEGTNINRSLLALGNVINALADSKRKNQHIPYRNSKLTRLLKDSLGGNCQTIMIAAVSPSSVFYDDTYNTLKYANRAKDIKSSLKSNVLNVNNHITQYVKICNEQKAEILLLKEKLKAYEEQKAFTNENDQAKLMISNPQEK
Procedure, shortened: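 KIF18A (1-417) at 2.5 nM with 60 µg/mL microtubules and 25 µM ATP, compounds at 0-10 µM final, reacted 120 min at ambient temperature. ADP formed was read by ADP-Glo chemiluminescence after two 30 min room-temperature steps.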

Row | Compound | IC50 ([1]; Homo sapiens, HT-29, 72 h) | IC50 ([2]; Homo sapiens, OVCAR-3, 72 h) | IC50 [3] | IC50 ([1]; read-out: HT-29 IC50) | IC50 [2]
1 | Cc1cc2nc(n1)N1CCC(F)(F)C(/C=C/CC3CCN(CC3)c3cc(NS(=O)(=O)CCO)c(C(=O)O)cc3-n3cc-2nn3)C1 (stereo not drawn) [Example 91, 1^4,1^4-difluoro-4^4-((2-hydroxyethyl)sulfonamido)-2^6-methyl-3^1H-2(2,4)-pyrimidin-1(1,3),5(1,4)-dipiperidin-3(4,1)-triaz ole-4(1,2)-benzocyclooct-7-en-4^5 carboxylic acid] | > 3000 nM | > 3000 nM | 37 nM |  | 
2 | N-(1^4,1^4,5^1,5^1-tetrafluoro-2^6-methyl-4-dioxo-5^2,5^3-dihydro-5^1H-3-aza-2(2,4)-pyrimidin-1(1,3),6(1,4)-dipiperidin-5(4,5)-benzofurancyclononane-8-en-5^7-yl)-ethanesulfonamide [Example 20] |  |  | 410 nM | 69 nM | 57 nM
3 | N-(1^4,1^4-difluoro-2^6-methyl-5^1,4-dioxo-5^1,5^2,5^3,5^4-tetrahydro-3-aza-2(2,4)-pyrimidin-1(1,3),6(1,4)-dipiperidin-5(5,6)-in denoheterocyclonon-8-en-5^8-yl)-2-hydroxyethane-1-sulfonamide [Example 8] |  |  | 48 nM | 43 nM | 37 nM
4 | N-((1^3R,Z)-1^4,1^4-difluoro-5^1-hydroxy-2^6-methyl-4-oxo-5^2,5^3-dihydro-5^1H-3-aza-2(2,4)-pyrimidin-1(1,3),6(1,4)-dipiperi din-5(4,5)-indenoheterocyclonon-8-en-5^7-yl)-2-hydroxyethane-1-sulfonamide [Example 7] |  |  | 51 nM | 26 nM | 41 nM

Continued, values first:

Row | IC50 ([1]; Homo sapiens, HT-29, 72 h) | IC50 ([2]; Homo sapiens, OVCAR-3, 72 h) | IC50 [3] | IC50 ([1]; read-out: HT-29 IC50) | IC50 [2] | Compound
5 | 154 nM | 141 nM | 427 nM |  |  | COC(=O)c1cc2c(cc1NS(=O)(=O)CCO)N1CCC(C/C=C/C3CN(CCC3(F)F)c3nc(C)cc(n3)-c3cn-2nn3)CC1 (stereo not drawn) [Example 92A, methyl(3^4Z,7E)-1^4,1^4-difluoro-4^4-((2-hydroxyethyl)sulfonamido)-2^6-methyl 3^1H-2(2,4)-pyrimidin-1(1,3),5(1,4)-dipiperidin-3(4,1)-triazole-4(1,2)-benzocyclooct-7-en-4^5carboxylate]
6 |  |  | 405 nM | 164 nM | 173 nM | Methyl(3^4Z,7Z)-1^4,1^4-difluoro-4^4-((2-hydroxyethyl)sulfonamido)-2^6-methyl 3^1H-2(2,4)-pyrimidin-1(1,3),5(1,4)-dipiperidin-3(4,1)-triazole-4(1,2)-benzocyclooct-7-en-4^5 carboxylate [Example 92B]
7 |  |  | 521 nM | 671 nM | 500 nM | N-((3^4Z,7E)-1^4,1^4-difluoro-2^6-methyl-3^1H-2(2,4)-pyrimidin-1(1,3),5(1,4)-dipiperidin-3(4,1)-triazole-4(1,2)-benzocyclooct-7 -en-4^4-yl)-2-hydroxyethane-1-sulfonamide [Example 81C]
8 |  |  | 132 nM | 29 nM | 31 nM | N-((3^4Z,7E)-1^4,1^4-difluoro-2^6-methyl-3^1H-2(2,4)-pyrimidin-1(1,3),5(1,4)-dipiperidin-3(4,1)-triazole-4(1,2)-benzocyclooct-7 -en-4^4-yl)-2-hydroxyethane-1-sulfonamide [Example 81D]
9 |  |  | 219 nM | 23 nM | 22 nM | N-((3^4Z, 7Z)-1^4,1^4-difluoro-2^6-methyl-3^1H-2(2,4)-pyrimidin-1(1,3),5(1,4)-dipiperidin-3(4,1)-triazole-4(1,2)-benzocyclooct-7-en-4^4-y 1)-2-hydroxyethane-1-sulfonamide [Example 81A]
10 |  |  | 491 nM | 254 nM | 178 nM | N-((3^4Z, 7Z)-1^4,1^4-difluoro-2^6-methyl-3^1H-2(2,4)-pyrimidin-1(1,3),5(1,4)-dipiperidin-3(4,1)-triazole-4(1,2)-benzocyclooct-7-en-4^4-y 1)-2-hydroxyethane-1-sulfonamide [Example 81B]
